Measurements: ChEMBL document CHEMBL3045592, “Studies of O,O-dimethyl α-(2,4-dichlorophenoxyacetoxy)ethylphosphonate (HW02) as a new herbicide. 1. Synthesis and herbicidal activity of HW02 and analogues as novel inhibitors of pyruvate dehydrogenase complex” (J Agric Food Chem, 2011)

Columns and labels:
Digitaria sanguinalis [1] = experiment: Post-emergence herbicidal activity against Digitaria sanguinalis (hairy crabgrass) assessed as growth inhibition at 75 ai g/ha after 20 days by green house test; format: functional
Chenopodium album [2] = experiment: Post-emergence herbicidal activity against Chenopodium album assessed as growth inhibition at 450 ai g/ha after 20 days by green house test; format: functional
Digitaria sanguinalis [3] = experiment: Pre-emergence herbicidal activity against Digitaria sanguinalis (hairy crabgrass) assessed as growth inhibition at 1500 ai g/ha after 20 days by green house test; format: functional
Digitaria sanguinalis [4] = experiment: Pre-emergence herbicidal activity against Digitaria sanguinalis (hairy crabgrass) assessed as growth inhibition at 450 ai g/ha after 20 days by green house test; format: functional
[5] = Toxicity against Oryza sativa (rice) assessed as growth inhibition at 450 ai g/ha post-emergent application measured after 20 days by green house crop selectivity test; format: organism-based; conditions: in vivo, read-out: GI
Amaranthus retroflexus [6] = experiment: Pre-emergence herbicidal activity against Amaranthus retroflexus assessed as growth inhibition at 1500 ai g/ha after 20 days by green house test; format: functional
Digitaria sanguinalis [7] = experiment: Post-emergence herbicidal activity against Digitaria sanguinalis (hairy crabgrass) assessed as growth inhibition at 150 ai g/ha after 20 days by green house test; format: functional
Echinochloa crus-galli [8] = experiment: Post-emergence herbicidal activity against Echinochloa crus-galli (barnyard grass) assessed as growth inhibition at 1500 ai g/ha after 20 days by green house test; format: functional
Chenopodium album [9] = experiment: Pre-emergence herbicidal activity against Chenopodium album assessed as growth inhibition at 75 ai g/ha after 20 days by green house test; format: functional
Medicago sativa = experiment: Post-emergence herbicidal activity against Medicago sativa (alfalfa) assessed as growth inhibition at 1500 ai g/ha after 20 days by green house test; format: functional
Digitaria sanguinalis [10] = experiment: Post-emergence herbicidal activity against Digitaria sanguinalis (hairy crabgrass) assessed as growth inhibition at 1500 ai g/ha after 20 days by green house test; format: functional
Abutilon theophrasti [11] = experiment: Post-emergence herbicidal activity against Abutilon theophrasti (velvetleaf) assessed as growth inhibition at 450 ai g/ha after 20 days by green house test; format: functional
Setaria viridis [12] = experiment: Post-emergence herbicidal activity against Setaria viridis (green foxtail) assessed as growth inhibition at 450 ai g/ha after 20 days by green house test; format: functional
Chenopodium album [13] = experiment: Pre-emergence herbicidal activity against Chenopodium album assessed as growth inhibition at 450 ai g/ha after 20 days by green house test; format: functional
Abutilon theophrasti [14] = experiment: Pre-emergence herbicidal activity against Abutilon theophrasti (velvetleaf) assessed as growth inhibition at 150 ai g/ha after 20 days by green house test; format: functional
[15] = system: Brassica rapa subsp. oleifera; experiment: Pre-emergence herbicidal activity against Brassica rapa subsp. oleifera Si Yue Man assessed as growth inhibition at 1500 ai g/ha after 20 days by green house test; format: functional
Amaranthus spinosus [16] = experiment: Post-emergence herbicidal activity against Amaranthus spinosus assessed as growth inhibition at 150 ai g/ha after 20 days by green house test; format: functional
Setaria viridis [17] = experiment: Post-emergence herbicidal activity against Setaria viridis (green foxtail) assessed as growth inhibition at 75 ai g/ha after 20 days by green house test; format: functional
Echinochloa crus-galli [18] = experiment: Post-emergence herbicidal activity against Echinochloa crus-galli (barnyard grass) assessed as growth inhibition at 450 ai g/ha after 20 days by green house test; format: functional
[19] = system: Brassica rapa subsp. oleifera; experiment: Post-emergence herbicidal activity against Brassica rapa subsp. oleifera Si Yue Man assessed as growth inhibition at 1500 ai g/ha after 20 days by green house test; format: functional
Setaria viridis [20] = experiment: Pre-emergence herbicidal activity against Setaria viridis (green foxtail) assessed as growth inhibition at 150 ai g/ha after 20 days by green house test; format: functional
Amaranthus retroflexus [21] = experiment: Post-emergence herbicidal activity against Amaranthus retroflexus assessed as growth inhibition at 450 ai g/ha after 20 days by green house test; format: functional
Abutilon theophrasti [22] = experiment: Pre-emergence herbicidal activity against Abutilon theophrasti (velvetleaf) assessed as growth inhibition at 75 ai g/ha after 20 days by green house test; format: functional
Amaranthus spinosus [23] = experiment: Post-emergence herbicidal activity against Amaranthus spinosus assessed as growth inhibition at 450 ai g/ha after 20 days by green house test; format: functional
Amaranthus spinosus [24] = experiment: Pre-emergence herbicidal activity against Amaranthus spinosus assessed as growth inhibition at 450 ai g/ha after 20 days by green house test; format: functional
Abutilon theophrasti [25] = experiment: Post-emergence herbicidal activity against Abutilon theophrasti (velvetleaf) assessed as growth inhibition at 75 ai g/ha after 20 days by green house test; format: functional
Amaranthus spinosus [26] = experiment: Pre-emergence herbicidal activity against Amaranthus spinosus assessed as growth inhibition at 75 ai g/ha after 20 days by green house test; format: functional
[27] = target: T1, Pyruvate dehydrogenase complex (Pisum sativum) (UniProt P52902+P52904); experiment: Inhibition of PDHc in Pisum sativum Zhongwan-2 (pea) shoot mitochondria assessed as decrease in rate of NADH formation using sodium pyruvate as substrate at 1 microg/g preincubated for 25 min before substrate addition measured after 1 min by spectrophotometric assay; format: protein-complex assay; conditions: Lathyrus oleraceus
[28] = target: T1, Pyruvate dehydrogenase complex (Pisum sativum); experiment: Inhibition of PDHc in Pisum sativum Zhongwan-2 (pea) shoot mitochondria assessed as decrease in rate of NADH formation using sodium pyruvate as substrate at 10 microg/g preincubated for 25 min before substrate addition measured after 1 min by spectrophotometric assay; format: protein-complex assay; conditions: Lathyrus oleraceus
Echinochloa crus-galli [29] = experiment: Pre-emergence herbicidal activity against Echinochloa crus-galli (barnyard grass) assessed as growth inhibition at 1500 ai g/ha after 20 days by green house test; format: functional
Amaranthus spinosus [30] = experiment: Pre-emergence herbicidal activity against Amaranthus spinosus assessed as growth inhibition at 150 ai g/ha after 20 days by green house test; format: functional
Digitaria sanguinalis [31] = experiment: Pre-emergence herbicidal activity against Digitaria sanguinalis (hairy crabgrass) assessed as growth inhibition at 150 ai g/ha after 20 days by green house test; format: functional
[32] = target: T1, Pyruvate dehydrogenase complex (Pisum sativum); experiment: Inhibition of PDHc in Pisum sativum Zhongwan-2 (pea) shoot mitochondria assessed as decrease in rate of NADH formation using sodium pyruvate as substrate at 1000 microg/g preincubated for 25 min before substrate addition measured after 1 min by spectrophotometric assay; format: protein-complex assay; conditions: Lathyrus oleraceus
[33] = target: T1, Pyruvate dehydrogenase complex (Pisum sativum); experiment: Inhibition of PDHc in Pisum sativum Zhongwan-2 (pea) shoot mitochondria assessed as decrease in rate of NADH formation using sodium pyruvate as substrate at 100 microg/g preincubated for 25 min before substrate addition measured after 1 min by spectrophotometric assay; format: protein-complex assay; conditions: Lathyrus oleraceus
Chenopodium album [34] = experiment: Post-emergence herbicidal activity against Chenopodium album assessed as growth inhibition at 150 ai g/ha after 20 days by green house test; format: functional
Setaria viridis [35] = experiment: Post-emergence herbicidal activity against Setaria viridis (green foxtail) assessed as growth inhibition at 150 ai g/ha after 20 days by green house test; format: functional
Chenopodium album [36] = experiment: Post-emergence herbicidal activity against Chenopodium album assessed as growth inhibition at 75 ai g/ha after 20 days by green house test; format: functional
Digitaria sanguinalis [37] = experiment: Post-emergence herbicidal activity against Digitaria sanguinalis (hairy crabgrass) assessed as growth inhibition at 450 ai g/ha after 20 days by green house test; format: functional
Amaranthus retroflexus [38] = experiment: Post-emergence herbicidal activity against Amaranthus retroflexus assessed as growth inhibition at 1500 ai g/ha after 20 days by green house test; format: functional
Setaria viridis [39] = experiment: Pre-emergence herbicidal activity against Setaria viridis (green foxtail) assessed as growth inhibition at 75 ai g/ha after 20 days by green house test; format: functional

COP(=O)(OC)C(C)OC(=O)COc1ccc(Cl)cc1Cl (stereo not given) [CLACYFOS]
growth inhibition (GI) (Digitaria sanguinalis [1]): 0% | growth inhibition (GI) (Chenopodium album [2]): 100% | growth inhibition (GI) (Digitaria sanguinalis [3]): 75% | growth inhibition (GI) (Digitaria sanguinalis [4]): 45% | inhibition at 480 h [5]: 0% | growth inhibition (GI) (Amaranthus retroflexus [6]): 90% | growth inhibition (GI) (Digitaria sanguinalis [7]): 0% | growth inhibition (GI) (Echinochloa crus-galli [8]): 50% | growth inhibition (GI) (Chenopodium album [9]): 0% | growth inhibition (GI) (Medicago sativa): 90% | growth inhibition (GI) (Digitaria sanguinalis [10]): 50% | growth inhibition (GI) (Abutilon theophrasti [11]): 100% | growth inhibition (GI) (Setaria viridis [12]): 0% | growth inhibition (GI) (Chenopodium album [13]): 0% | growth inhibition (GI) (Abutilon theophrasti [14]): 0% | growth inhibition (GI) [15]: 90% | growth inhibition (GI) (Amaranthus spinosus [16]): 100% | growth inhibition (GI) (Setaria viridis [17]): 0% | growth inhibition (GI) (Echinochloa crus-galli [18]): 35% | growth inhibition (GI) [19]: 90% | growth inhibition (GI) (Setaria viridis [20]): 0% | growth inhibition (GI) (Amaranthus retroflexus [21]): 100% | growth inhibition (GI) (Abutilon theophrasti [22]): 0% | growth inhibition (GI) (Amaranthus spinosus [23]): 100% | growth inhibition (GI) (Amaranthus spinosus [24]): 0% | growth inhibition (GI) (Abutilon theophrasti [25]): 97.5% | growth inhibition (GI) (Amaranthus spinosus [26]): 0% | inhibition [27]: 44.3% | inhibition [28]: 50.8% | growth inhibition (GI) (Echinochloa crus-galli [29]): 75% | growth inhibition (GI) (Amaranthus spinosus [30]): 0% | growth inhibition (GI) (Digitaria sanguinalis [31]): 0% | inhibition [32]: 73.8% | inhibition [33]: 59% | growth inhibition (GI) (Chenopodium album [34]): 96% | growth inhibition (GI) (Setaria viridis [35]): 0% | growth inhibition (GI) (Chenopodium album [36]): 92.5% | growth inhibition (GI) (Digitaria sanguinalis [37]): 37.5% | growth inhibition (GI) (Amaranthus retroflexus [38]): 90% | growth inhibition (GI) (Setaria viridis [39]): 0%

O=C(O)COc1ccc(Cl)cc1Cl [2,4-DICHLOROPHENOXYACETIC ACID]
growth inhibition (GI) (Digitaria sanguinalis [1]): 0% | growth inhibition (GI) (Chenopodium album [2]): 100% | growth inhibition (GI) (Digitaria sanguinalis [3]): 90% | growth inhibition (GI) (Digitaria sanguinalis [4]): 65% | inhibition at 480 h [5]: 37.5% | growth inhibition (GI) (Amaranthus retroflexus [6]): 90% | growth inhibition (GI) (Digitaria sanguinalis [7]): 0% | growth inhibition (GI) (Echinochloa crus-galli [8]): 50% | growth inhibition (GI) (Chenopodium album [9]): 0% | growth inhibition (GI) (Medicago sativa): 90% | growth inhibition (GI) (Digitaria sanguinalis [10]): 50% | growth inhibition (GI) (Abutilon theophrasti [11]): 100% | growth inhibition (GI) (Setaria viridis [12]): 0% | growth inhibition (GI) (Chenopodium album [13]): 0% | growth inhibition (GI) (Abutilon theophrasti [14]): 0% | growth inhibition (GI) [15]: 90% | growth inhibition (GI) (Amaranthus spinosus [16]): 92.5% | growth inhibition (GI) (Setaria viridis [17]): 0% | growth inhibition (GI) (Echinochloa crus-galli [18]): 35% | growth inhibition (GI) [19]: 90% | growth inhibition (GI) (Setaria viridis [20]): 5.5% | growth inhibition (GI) (Amaranthus retroflexus [21]): 100% | growth inhibition (GI) (Abutilon theophrasti [22]): 0% | growth inhibition (GI) (Amaranthus spinosus [23]): 92.5% | growth inhibition (GI) (Amaranthus spinosus [24]): 0% | growth inhibition (GI) (Abutilon theophrasti [25]): 72.5% | growth inhibition (GI) (Amaranthus spinosus [26]): 0% | inhibition [27]: 12.9% | inhibition [28]: 18.5% | growth inhibition (GI) (Echinochloa crus-galli [29]): 75% | growth inhibition (GI) (Amaranthus spinosus [30]): 0% | growth inhibition (GI) (Digitaria sanguinalis [31]): 10% | inhibition [32]: 48.1% | inhibition [33]: 27.8% | growth inhibition (GI) (Chenopodium album [34]): 92.5% | growth inhibition (GI) (Setaria viridis [35]): 0% | growth inhibition (GI) (Chenopodium album [36]): 72.5% | growth inhibition (GI) (Digitaria sanguinalis [37]): 0% | growth inhibition (GI) (Amaranthus retroflexus [38]): 90% | growth inhibition (GI) (Setaria viridis [39]): 0%

COP(=O)(COC(=O)COc1cccc(C(F)(F)F)c1)OC
growth inhibition (GI) (Digitaria sanguinalis [1]): 0% | growth inhibition (GI) (Chenopodium album [2]): 82.5% | growth inhibition (GI) (Digitaria sanguinalis [3]): 75% | growth inhibition (GI) (Digitaria sanguinalis [4]): 35% | inhibition at 480 h [5]: 32.5% | growth inhibition (GI) (Amaranthus retroflexus [6]): 50% | growth inhibition (GI) (Digitaria sanguinalis [7]): 0% | growth inhibition (GI) (Echinochloa crus-galli [8]): <=50% | growth inhibition (GI) (Chenopodium album [9]): 0% | growth inhibition (GI) (Medicago sativa): 90% | growth inhibition (GI) (Digitaria sanguinalis [10]): <=50% | growth inhibition (GI) (Abutilon theophrasti [11]): 87.5% | growth inhibition (GI) (Setaria viridis [12]): 0% | growth inhibition (GI) (Chenopodium album [13]): 0% | growth inhibition (GI) (Abutilon theophrasti [14]): 0% | growth inhibition (GI) [15]: 75% | growth inhibition (GI) (Amaranthus spinosus [16]): 0% | growth inhibition (GI) (Setaria viridis [17]): 0% | growth inhibition (GI) (Echinochloa crus-galli [18]): 0% | growth inhibition (GI) [19]: 90% | growth inhibition (GI) (Setaria viridis [20]): 0% | growth inhibition (GI) (Amaranthus retroflexus [21]): 57.5% | growth inhibition (GI) (Abutilon theophrasti [22]): 0% | growth inhibition (GI) (Amaranthus spinosus [23]): 57.5% | growth inhibition (GI) (Amaranthus spinosus [24]): 0% | growth inhibition (GI) (Abutilon theophrasti [25]): 27.5% | growth inhibition (GI) (Amaranthus spinosus [26]): 0% | inhibition [27]: 22.9% | inhibition [28]: 31.1% | growth inhibition (GI) (Echinochloa crus-galli [29]): 50% | growth inhibition (GI) (Amaranthus spinosus [30]): 0% | growth inhibition (GI) (Digitaria sanguinalis [31]): 0% | inhibition [32]: 60.7% | inhibition [33]: 49.2% | growth inhibition (GI) (Chenopodium album [34]): 42.5% | growth inhibition (GI) (Setaria viridis [35]): 0% | growth inhibition (GI) (Chenopodium album [36]): 32.5% | growth inhibition (GI) (Digitaria sanguinalis [37]): 0% | growth inhibition (GI) (Amaranthus retroflexus [38]): <=50% | growth inhibition (GI) (Setaria viridis [39]): 0%
